Patent EP4353088A1, “COMPOSITIONS OR COMBINED PREPARATIONS OF ESSENTIAL OILS AND L-CARNITINE” (Servicio Andaluz de Salud, priority 2022, dated 2024)

How the values were obtained:
cytokines and chemokines = experiment: Cytokines and chemokines in plasma (ProcartaPlex 26-Plex); type: in vivo, mice; conditions: L-carnitine (0.02%, w/v) in drinking water for 40 days
Description: (§1) A humanized gnotobiotic mouse model was developed through the fecal microbiota transplantation of human feces into germ-free mice. Prior to the transplantation procedure, 18-week-old mice (n = 40) were orally treated by gavage with 200 µL of antibiotic cocktail composed of vancomycin (5 mg mL^-1), neomycin, metronidazole and ampicillin 155 (10 mg mL^-1) in order to deplete the bacterial content. An all-bacteria qPCR was performed with universal 16S rRNA primers that detect a broad range of bacterial species to verify complete absence of detectable bacteria in the feces.
(§2) Then, mice received a fecal microbiota transplantation from a selection of patients to recolonize the gastrointestinal tract, as previously described. Specifically, three patients with IHD, T2DM and high plasma levels of TMAO were eligible for feces donation. Fresh fecal samples were suspended in sterile phosphate buffered saline (PBS) and glycerol was added at 10 % (v/v) final concentration; then, samples were aliquoted into cryotubes and immediately stored at -80 °C. At the moment of the transplantation, aliquot samples from these patients were thawed in ice and mixed in equal quantities as a sample pool to guarantee that every mouse received a similar microbiota load. […]

SCFA species = SCFA species in feces (GC-FID) of humanized gnotobiotic mice; type: in vivo; conditions: L-carnitine (0.02%, w/v) in drinking water for 40 days; carnitine group vs control group
Description: as §1, §2

[1] = test system: protein carbonyls and pentosidine; experiment: Protein carbonyls (AAS, GGS) and pentosidine in plasma (fluorescent HPLC); type: in vivo, mice; conditions: L-carnitine (0.02%, w/v) in drinking water for 40 days; carnitine group vs control group
Description: as §1
as §2, with “load. The sample pool was centrifuged for 2 minutes at 2,800 xg, and the supernatant was transferred to mice by oral gavage for three consecutive days according to previously published protocols. Mice were moved to clean cages every two days to minimize the coprophagia and to prevent reinoculation from old feces.” for “load.”

[2] = test system: cardiovascular disease markers; experiment: Cardiovascular markers in plasma (Mouse CVD Magnetic Bead Panel 1); type: in vivo, mice; conditions: L-carnitine (0.02%, w/v) in drinking water for 40 days; carnitine group vs control group
Description: as §1, §2

TMA and TMAO = experiment: L-carnitine, TMA and TMAO levels in plasma (LC-MS) of humanized gnotobiotic mice; type: in vivo; conditions: L-carnitine (0.02%, w/v) in drinking water for 40 days; carnitine group vs control group
Description: as §1
as §2, with “load. The sample pool was centrifuged for 2 minutes at 2,800 xg, and the supernatant was transferred to mice by oral gavage for three consecutive days according to previously published protocols. Mice were moved to clean cages every two days to minimize the coprophagia and to prevent reinoculation from old feces.” for “load.”

gut microbiota = experiment: Fecal microbiota analysis by 16S rRNA gene sequencing in humanized gnotobiotic mice; type: in vivo
Description: A humanized gnotobiotic mouse model was developed through the fecal microbiota transplantation of human feces into germ-free mice. Prior to the transplantation procedure, 18-week-old mice (n = 40) were orally treated by gavage with 200 μL of antibiotic cocktail composed of vancomycin (5 mg mL^-1), neomycin, metronidazole and ampicillin 155 (10 mg mL^-1) in order to deplete the bacterial content. An all-bacteria qPCR was performed with universal 16S rRNA primers that detect a broad range of bacterial species to verify complete absence of detectable bacteria in the feces. Then, mice received a fecal microbiota transplantation from a selection of patients to recolonize the gastrointestinal tract, as previously described. Specifically, three patients with IHD, T2DM and high plasma levels of TMAO were eligible for feces donation. Fresh fecal samples were suspended in sterile phosphate buffered saline (PBS) and glycerol was added at 10 % (v/v) final concentration; then, samples were aliquoted into cryotubes and immediately stored at -80 °C. At the moment of the transplantation, aliquot samples from these patients were thawed in ice and mixed in equal quantities as a sample pool to guarantee that every mouse received a similar microbiota load. The sample pool was centrifuged for 2 minutes at 2,800 xg, and the supernatant was transferred to mice by oral gavage for three consecutive days according to previously published protocols. Mice were moved to clean cages every two days to minimize the coprophagia and to prevent reinoculation from old feces. […]

[3] = genus level, fecal samples, among control, carnitine, savory, parsley and rosemary groups, 40 days

**Q.** For `C[N+](C)(C)C[C@H](O)CC(=O)[O-]` [carnitine, L-carnitine], which “plasma IFNγ levels” value (cytokines and chemokines; carnitine group vs control group) is on record?
**A.** Its value is “significant increase”.

**Q.** What about the “plasma CXCL10 levels” value (cytokines and chemokines; vs control group) of the same molecule?
**A.** Its value is “significant increase”.

**Q.** And the “fecal levels of SCFA species (acetic, butyric and propionic acids)” value (SCFA species)?
**A.** The value was “no significant differences”.

**Q.** What about the “plasma levels of AAS” value [1] of the same molecule?
**A.** Its value is “no significant effects”.

**Q.** And the “plasma levels of GGS” value [1]?
**A.** The value was “no significant effects”.

**Q.** And the plasma pentosidine levels [1]?
**A.** Its plasma pentosidine levels is “no differences”.

**Q.** And the “plasma cardiovascular disease markers (Se-selectin, sICAM-1, Precam-1, sP-selectin, PAI-1 and thrombomodulin)” value [2]?
**A.** The value was “no significant differences”.

**Q.** What about the “plasma L-carnitine levels” value (TMA and TMAO) of the same molecule?
**A.** The value was “significant increase”.

**Q.** And the “plasma TMA levels” value (TMA and TMAO)?
**A.** Its value is “significant increase”.

**Q.** What about the “plasma TMAO levels” value (TMA and TMAO) of the same molecule?
**A.** The value was “no significant differences”.

**Q.** What about the “relative abundance at the family and genus levels” value (gut microbiota; L-carnitine (0.02%, w/v) in drinking water for 40 days, carnitine group vs control group) of the same molecule?
**A.** Its value is “no differences”.

**Q.** What about the “Chao1 index (alpha diversity)” value (gut microbiota; [3]) of the same molecule?
**A.** Its value is “no significant differences”.

**Q.** And the “Shannon index (alpha diversity)” value (gut microbiota; [3])?
**A.** Its value is “no significant differences”.
